Data published in patent publication US4329460A, “Uracil derivatives and production thereof” (Takeda Chemical Industries, Ltd., priority 1976, dated 1982).
In brackets after ≈: the same amount, converted by molar mass.

Experiments:
leukemia P 388 = assay: life-prolonging effect upon leukemia P 388 in mice; type: in vivo, BDF1 mice; conditions: intraperitoneal, median survival time treated/control
Method: (1) The procedure of a test on the life-prolonging effect upon leukemia P 388 in mice
One tenth ml of diluted ascitic fluid containing 1×10^5 cells was implanted in BDF1 mice weighing 18 to 25 g. A suspension of the test-compound is injected intraperitoneally at a constant rate of volume of 0.1 ml/10 g body weight. As the detailed experimental method, the Protocols for Screening Chemical Agents (Geran, R. I., Greenberg, N. H., Macdonald, M. M., Schumacher, A. M., and Abbott, B. J.: Protocols for Screening Chemical Agents and Natural Products against Animal Tumors and Other Biological Systems. Cancer Chemotherapy Rept., 3 (Part 3) 7, 1972) is adopted.
The results are recorded in compliance to the T/C % value calculated on the basis of the median survival time of treated to control animals.

KB cells = assay: Inhibition of KB cell multiplication; type: cell-based; conditions: Homo sapiens, 72 h, cell count on 4th day after seeding, read-out: ED50, inhibition of cell growth
Method: (1) Inhibition of KB cell multiplication
2×10^4 cells were suspended in 1 ml of Eagle's Minimal Essential Medium (MEM)+10% fetal calf serum (MEM.10 Fcs) and seeded in a glass dish (d=1.8 cm) containing a round coverslip (d=1.5 cm).
On the first day after seeding, three coverslips (per test group) were taken out and transferred to a single glass dish (d=4.5 cm) holding 5 ml of MEM.10 Fcs containing a verying concentration of the compound. On the 4th day after seeding, the number of cells per coverslip (3 slips for each concentration level) was determined with a Coulter counter. The result was expressed in the concentration of the drug giving a cell count of 50% (ED50) with the average number of cells for the control (not medicated) group on the 4th day being taken as 100%.

BAV3-infected C34 cells = assay: Inhibition of the induction of cell multiplication in BAV3-infected C34 cells; type: cell-based; conditions: Mus musculus, 96 h, (V-M) difference on 6th day after seeding, read-out: ED50, inhibition of cell growth
Method: (2) Inhibition of the induction of cell multiplication in BAV3-infected C34 cells
1×10^5 cells were suspended in 1 ml of Eagle's MEM+10% fetal calf serum (MEM.10 Fcs) and seeded in a glass dish (d=1.8 cm) containing a round coverslip (d=1.5 cm).
On the 2nd day after seeding, infection (37° C., 120 min.) (mock-infection or virus infection; in the case of the latter, multiplicity of infection per cell=100-200 PFU/cell) was carried out. After this operation, one test group (3 coverslips) was taken out and transferred to a glass dish (d=4.5 cm) holding 5 ml of MEM.2 Fcs containing each concentration of compound.
On the 6th day after seeding, the number of cells per coverslip was determined with a Coulter counter. For each experimental group, the difference in all members between virus-infected cells (V) and mock-infected cells (M) was calculated. The result was expressed in the concentration of the drug giving a (V-M) value of 50% (ED50) for the control (not medicated) group as 100%.

AC cells = assay: Inhibition of AC cell multiplication; type: cell-based; conditions: Rattus norvegicus, 72 h, cell count on 3rd day following replacement of medium, read-out: ED50, inhibition of cell growth
Method: (3) Inhibition of Ac cell multiplication
1×10^5 AC cells (2 ml of Eagle's MEM, with 10% fetal calf serum were seeded in a Falcon dish (in. diam. 3.5 cm). On the 24th hour, replacement was made with the above culture medium containing a varying concentration of drug. The number of cells was determined on the 3rd day following the replacement of medium. The pharmacologic effect was expressed in ED50 (the concentration of the drug giving a cell count of 50% for the treated group with the number of cells for the control group being taken as 100%.

| Structure (SMILES) | T/C(%) (leukemia P 388; 50 mg/kg/day) | T/C(%) (leukemia P 388; 100 mg/kg/day) | T/C(%) (leukemia P 388; 200 mg/kg/day) | IC50 (KB cells) [µg/mL] | IC50 (BAV3-infected C34 cells) [µg/mL] | IC50 (AC cells) [µg/mL] |
| --- | --- | --- | --- | --- | --- | --- |
| COC(=O)C1(F)C(=O)NC(=O)NC1OC (centres unmarked) [methyl 5-fluoro-6-methoxy-1,2,3,4,5,6-hexahydro-2,4-dioxopyrimidine-5-carboxylate] | 208 | 217 | 243 | 3 (≈ 13.6 µM) | 0.023 (≈ 0.104 µM) | 0.12 (≈ 0.545 µM) |
| CCOC(=O)C1(F)C(=O)NC(=O)NC1OCC (centres unmarked) [ethyl 5-fluoro-6-ethoxy-1,2,3,4,5,6-hexahydro-2,4-dioxopyrimidine-5-carboxylate] | 130 | 143 | 160 | 2.8 (≈ 11.3 µM) | 0.023 (≈ 0.0927 µM) |  |
